One assay relates to TNF-α. The assay is described as follows: Induction of TNF-α using fresh human whole blood (WB). In kind it is cell-based. The following applies: three donors, overnight incubation, cytokine released as % of 2 μM resiquimod control, read-out: mean pEC50 for TNF-α (converted). As to the method: (§1) Assay for the Induction of Interferon-α and TNF-α using Fresh Human Whole Blood (WB)
(§2) Compounds were prepared at 100× required concentration in DMSO in flat-bottom microtitre plates at a volume of 1.5 μL. Columns 1-10 contained a 1 in 4 serial dilution of the test compound. Included on each plate was a serial dilution of the TLR7/8 agonist resiquimod as a standard and Column 11 contained 1.5 μl of 200 μM resiquimod (giving a 2 μM final concentration, used to define the approximate maximal response to resiquimod). Each compound was assayed in duplicate for each donor.
(§3) Incubation and Assays for Interferon-α and TNF-α
(§4) Blood samples from three human donors were collected into sodium heparin (10 U/ml). 150 μl of whole Blood was dispensed into Col 1 to 11 of assay plates containing 1.5 μl of test compound or standard in DMSO. Plates were placed in an incubator overnight (37° C., 95% air, 5% CO2). Following the overnight incubation, plates were removed from the incubator & mixed on an orbital shaker for approximately 1 minute. 100 μl of 0.9% saline was added to each well and the plates mixed again on an orbital shaker. Plates were then centrifuged (2500 rpm, 10 mins), after which a sample of plasma was removed using a Biomek FX and assayed for both IFN-α and TNF-α using the MSD (Mesoscale Discovery) electrochemiluminescence assay platform. The IFN-α assay was carried out similarly to that described above. The TNF-α assay was carried out as per kit instructions (Cat No K111BHB).
(§5) Cytokine released was expressed as a percentage of the 2 μM resiquimod control (column 11). This percentage was plotted against compound concentration and the pEC50 for the response determined by non-linear least squares curve fitting. For the IFN-α responses, generally a 4 parameter logistic model was selected. For the TNF responses where a clear maximum response was obtained (i.e. a well defined plateau in the response was observed) then a 4 parameter model was generally used. If the upper asymptote of the curve wasn't well defined then the curve fitting was generally constrained to a maximal response of 100% (i.e. to the response to 2 μM resiquimod) or to the response of the highest concentration tested if this was greater than the resiquimod response. Some curves were bell shaped for one or both cytokines and the cytokine data on the down slope of the bell shaped response (i.e. concentrations above those giving the maximal response) were generally excluded from the fit, usually with the exception of the concentration immediately above the peak response. Curve fitting thus concentrated on the up slope of the dose response curve.

The next assay relates to Interferon-α. The experiment in a line: Induction of Interferon-α using fresh human whole blood (WB). It is filed as cell-based. The conditions noted are these: three donors, overnight incubation, cytokine released as % of 2 μM resiquimod control, read-out: mean pEC50 for IFNα (converted). On the procedure: as §1, §2, §3, §4, §5

Counter-ions that a name gives are not always drawn. A value given as a limit tells only on which side of the number the result lay.

Take `CCCCc1nc(N)c2[nH]nc(CCCCCN3CCC(F)CC3)c2n1` [Example 18, 5-Butyl-3-(5-(4-fluoropiperidin-1-yl)pentyl)-1H-pyrazolo[4,3-d]pyrimidin-7-amine]: the EC50 in the assay with TNF-α was at least 3.98 µM; with Interferon-α it was at most 1.26 µM.
The corresponding values for `CCCCc1nc(N)c2[nH]nc(CCCCCCN3CC[C@H](F)C3)c2n1` [Example 11, (S)-5-Butyl-3-(6-(3-fluoropyrrolidin-1-yl)hexyl)-1H-pyrazolo[4,3-d]pyrimidin-7-amine] are at least 3.98 µM and at most 1.26 µM.
The corresponding values for `CCCCc1nc(N)c2[nH]nc(CCCCCN3CCCCC3)c2n1` [Example 5, 5-Butyl-3-(5-(piperidin-1-yl)pentyl)-1H-pyrazolo[4,3-d]pyrimidin-7-amine] are at least 3.98 µM and at most 1.26 µM.
The corresponding values for `CCCCc1nc(N)c2[nH]nc(CCCCCCN3CCC(O)CC3)c2n1` [Example 15, 1-(6-(7-Amino-5-butyl-1H-pyrazolo[4,3-d]pyrimidin-3-yl)hexyl)piperidin-4-01] are at least 3.98 µM and at most 1.26 µM.
As for `CCCCc1nc(N)c2[nH]nc(CCCCCN3CCC(O)CC3)c2n1` [Example 16, 1-(5-(7-Amino-5-butyl-1H-pyrazolo[4,3-d]pyrimidin-3-yl)pentyl)piperidin-4-01], the EC50 in the assay on TNF-α is at least 3.98 µM; in the assay with Interferon-α, at most 1.26 µM.
Consider `CCCCc1nc(N)c2[nH]nc(CCCCCN3CC[C@@H](F)C3)c2n1` [Example 14, (R)-5-Butyl-3-(5-(3-fluoropyrrolidin-1-yl)pentyl)-1H-pyrazolo[4,3-d]pyrimidin-7-amine], for which the EC50 with TNF-α is at least 3.98 µM; with Interferon-α, at most 1.26 µM.
The corresponding values for `CCCCc1nc(N)c2[nH]nc(CCCCCN3CCCC3)c2n1` [Example 6, 5-Butyl-3-(5-(pyrrolidin-1-yl)pentyl)-1H-pyrazolo[4,3-d]pyrimidin-7-amine] are at least 3.98 µM and at most 1.26 µM.
The corresponding values for `COCCc1nc(N)c2[nH]nc(CCCCCCN3CCCC3)c2n1` [Example 4, 5-(2-Methoxyethyl)-3-(6-(pyrrolidin-1-yl)hexyl)-1H-pyrazolo[4,3-d]pyrimidin-7-amine] are at least 3.98 µM and at most 1.26 µM.
The corresponding values for `CCCCc1nc(N)c2[nH]nc(CCCCCN3CCCCCC3)c2n1` [Example 10, 3-(5-(Azepan-1-yl)pentyl)-5-butyl-1H-pyrazolo[4,3-d]pyrimidin-7-amine] are at least 3.98 µM and at most 1.26 µM.
For `CCCCc1nc(N)c2[nH]nc(CCCCCCN3CCC(F)CC3)c2n1` [Example 17, 5-Butyl-3-(6-(4-fluoropiperidin-1-yl)hexyl)-1H-pyrazolo[4,3-d]pyrimidin-7-amine formate], the EC50 in the assay on TNF-α is at least 3.98 µM; in the assay on Interferon-α, at most 1.26 µM.
As to `CCCCc1nc(N)c2[nH]nc(CCCCCCCN3CCCCC3)c2n1` [Example 7, 5-Butyl-3-(7-(piperidin-1-yl)heptyl)-1H-pyrazolo[4,3-d]pyrimidin-7-amine], the results for the EC50 with TNF-α and in the assay with Interferon-α were at least 3.98 µM and at most 1.26 µM, respectively.
On to `COCCc1nc(N)c2[nH]nc(CCCCCCN3CCCCC3)c2n1` [Example 2, 5-(2-Methoxyethyl)-3-(6-(piperidin-1-yl)hexyl)-1H-pyrazolo[4,3-d]pyrimidin-7-amine], for which the EC50 with TNF-α is at least 3.98 µM; in the assay on Interferon-α it was at most 1.26 µM.
The corresponding values for `CCCCc1nc(N)c2[nH]nc(CCCCCN3CC[C@H](F)C3)c2n1` [Example 12, (S)-5-Butyl-3-(5-(3-fluoropyrrolidin-1-yl)pentyl)-1H-pyrazolo[4,3-d]pyrimidin-7-amine] are at least 3.98 µM and at most 1.26 µM.
For `CCCCc1nc(N)c2[nH]nc(CCCCCCN3CCCCC3)c2n1` [Example 1, 5-Butyl-3-(6-(piperidin-1-yl)hexyl)-1H-pyrazolo[4,3-d]pyrimidin-7-amine formate], the EC50 in the assay on TNF-α is at least 3.98 µM; in the assay with Interferon-α it was at most 1.26 µM.
Regarding `CCCCc1nc(N)c2[nH]nc(CCCCCCCN3CCCC3)c2n1` [Example 8, 5-Butyl-3-(7-(pyrrolidin-1-yl)heptyl)-1H-pyrazolo[4,3-d]pyrimidin-7-amine], the results for the EC50 in the assay on TNF-α and in the assay on Interferon-α were at least 3.98 µM and at most 1.26 µM, respectively.
Consider `CCCCc1nc(N)c2[nH]nc(CCCCCCN3CCCCCC3)c2n1` [Example 9, 3-(6-(Azepan-1-yl)hexyl)-5-butyl-1H-pyrazolo[4,3-d]pyrimidin-7-amine], for which the EC50 with TNF-α was at least 3.98 µM; in the assay with Interferon-α, at most 1.26 µM.
Turning to `CCCCc1nc(N)c2[nH]nc(CCCCCCN3CC[C@@H](F)C3)c2n1` [Example 13, (R)-5-Butyl-3-(6-(3-fluoropyrrolidin-1-yl)hexyl)-1H-pyrazolo[4,3-d]pyrimidin-7-amine formate], the EC50 in the assay with TNF-α is at least 3.98 µM; with Interferon-α, at most 1.26 µM.

These data come from patent US10022442B2, “Pyrazolopyrimidine compounds” (GlaxoSmithKline LLC, priority 2012, dated 2018).
